In ChEMBL document CHEMBL1201862, “PubChem BioAssay data set” (2004):
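Method: 48-hour compound exposure of cells in 96-well plates, five concentrations, linear interpolation of endpoints. Here, GI50 denotes the concentration required for 50% inhibition of growth.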 Calls of active or inactive are those of the source. Rule as the data show it: active = GI50 up to about 1.1 µM and inactive = higher.

Key:
Experiment in all cases: growth of human tumour cells (NCI), 48 h
[1] = system: 786-0
[2] = system: A498
[3] = system: A549
[4] = system: ACHN
[5] = system: BT-549
[6] = system: CAKI-1
[7] = system: CCRF-CEM
[8] = system: COLO 205
[9] = system: DU-145
[10] = system: EKVX
[11] = system: HCC 2998
[12] = system: HCT-116
[13] = system: HCT-15
[14] = system: HL-60
[15] = system: HOP-62
[16] = system: HOP-92
[17] = system: HT-29
[18] = system: Hs-578T
[19] = system: IGROV-1
[20] = system: K562
[21] = system: KM12
[22] = system: LOX IMVI
[23] = system: M14
[24] = system: MCF7
[25] = system: MDA-N
[26] = system: MOLT-4
[27] = system: Malme-3M
[28] = system: NCI-H226
[29] = system: NCI-H23
[30] = system: NCI-H460
[31] = system: NCI-H522
[32] = system: NCI/ADR-RES
[33] = system: OVCAR-3
[34] = system: OVCAR-4
[35] = system: OVCAR-5
[36] = system: OVCAR-8
[37] = system: PC-3
[38] = system: RPMI-8226
[39] = system: RXF 393
[40] = system: SF-268
[41] = system: SF-295
[42] = system: SF-539
[43] = system: SK-MEL-28
[44] = system: SK-MEL-2
[45] = system: SK-MEL-5
[46] = system: SK-OV-3
[47] = system: SN12C
[48] = system: SNB-19
[49] = system: SNB-75
[50] = system: SR
[51] = system: SW-620
[52] = system: T47D
[53] = system: TK-10
[54] = system: U-251
[55] = system: UACC-257
[56] = system: UO-31
[57] = system: MDA-MB-231
[58] = system: MDA-MB-435
[59] = system: UACC-62

Structure (SMILES): Cc1cc(S(=O)(=O)Nc2nc(N)n[nH]2)c(SCC(=O)O)cc1Cl
- GI50 [1]: > 10 µM (inactive)
- GI50 [2]: > 10 µM (inactive)
- GI50 [3]: > 10 µM (inactive)
- GI50 [4]: > 10 µM (inactive)
- GI50 [5]: > 10 µM (inactive)
- GI50 [6]: > 10 µM (inactive)
- GI50 [7]: > 10 µM (inactive)
- GI50 [8]: > 10 µM (inactive)
- GI50 [9]: > 10 µM (inactive)
- GI50 [10]: > 10 µM (inactive)
- GI50 [11]: > 10 µM (inactive)
- GI50 [12]: > 10 µM (inactive)
- GI50 [13]: > 10 µM
- GI50 [14]: > 10 µM (inactive)
- GI50 [15]: > 10 µM (inactive)
- GI50 [16]: > 10 µM (inactive)
- GI50 [17]: > 10 µM (inactive)
- GI50 [18]: > 10 µM (inactive)
- GI50 [19]: > 10 µM (inactive)
- GI50 [20]: > 10 µM (inactive)
- GI50 [21]: > 10 µM (inactive)
- GI50 [22]: > 10 µM (inactive)
- GI50 [23]: > 10 µM (inactive)
- GI50 [24]: > 10 µM (inactive)
- GI50 [25]: > 10 µM (inactive)
- GI50 [26]: > 10 µM (inactive)
- GI50 [27]: > 10 µM (inactive)
- GI50 [28]: > 10 µM (inactive)
- GI50 [29]: > 10 µM (inactive)
- GI50 [30]: > 10 µM (inactive)
- GI50 [31]: > 10 µM (inactive)
- GI50 [32]: > 10 µM (inactive)
- GI50 [33]: > 10 µM (inactive)
- GI50 [34]: > 10 µM (inactive)
- GI50 [35]: > 10 µM (inactive)
- GI50 [36]: > 10 µM (inactive)
- GI50 [37]: > 10 µM (inactive)
- GI50 [38]: > 10 µM (inactive)
- GI50 [39]: > 10 µM (inactive)
- GI50 [40]: > 10 µM (inactive)
- GI50 [41]: > 10 µM (inactive)
- GI50 [42]: > 10 µM (inactive)
- GI50 [43]: > 10 µM (inactive)
- GI50 [44]: > 10 µM (inactive)
- GI50 [45]: > 10 µM (inactive)
- GI50 [46]: > 10 µM (inactive)
- GI50 [47]: > 10 µM (inactive)
- GI50 [48]: > 10 µM (inactive)
- GI50 [49]: > 10 µM (inactive)
- GI50 [50]: > 10 µM (inactive)
- GI50 [51]: > 10 µM (inactive)
- GI50 [52]: > 10 µM (inactive)
- GI50 [53]: > 10 µM (inactive)
- GI50 [54]: > 10 µM (inactive)
- GI50 [55]: > 10 µM (inactive)
- GI50 [56]: > 10 µM (inactive)

Structure (SMILES): Cc1ccc(S(=O)(=O)N2CC2CCCCC=O)cc1 (stereo not given)
- GI50 [1]: 40.6 µM (inactive)
- GI50 [2]: > 100 µM (inactive)
- GI50 [3]: > 100 µM (inactive)
- GI50 [4]: 31.3 µM (inactive)
- GI50 [5]: > 100 µM (inactive)
- GI50 [6]: > 100 µM (inactive)
- GI50 [7]: 21.6 µM (inactive)
- GI50 [8]: > 100 µM (inactive)
- GI50 [9]: > 100 µM (inactive)
- GI50 [10]: > 100 µM (inactive)
- GI50 [12]: 57 µM (inactive)
- GI50 [13]: > 100 µM
- GI50 [15]: > 100 µM (inactive)
- GI50 [16]: > 100 µM (inactive)
- GI50 [17]: 26.8 µM (inactive)
- GI50 [18]: 44.3 µM (inactive)
- GI50 [19]: 80.9 µM (inactive)
- GI50 [20]: 32.6 µM (inactive)
- GI50 [21]: 63.1 µM (inactive)
- GI50 [22]: 20.1 µM (inactive)
- GI50 [23]: 51.3 µM (inactive)
- GI50 [57]: > 100 µM (inactive)
- GI50 [58]: > 100 µM (inactive)
- GI50 [25]: > 100 µM (inactive)
- GI50 [26]: 37.4 µM (inactive)
- GI50 [27]: > 100 µM (inactive)
- GI50 [28]: > 100 µM (inactive)
- GI50 [29]: > 100 µM (inactive)
- GI50 [31]: 72.8 µM (inactive)
- GI50 [32]: > 100 µM (inactive)
- GI50 [33]: > 100 µM (inactive)
- GI50 [34]: > 100 µM (inactive)
- GI50 [35]: > 100 µM (inactive)
- GI50 [36]: > 100 µM (inactive)
- GI50 [37]: > 100 µM (inactive)
- GI50 [38]: 37.8 µM (inactive)
- GI50 [39]: > 100 µM (inactive)
- GI50 [40]: > 100 µM (inactive)
- GI50 [41]: > 100 µM (inactive)
- GI50 [43]: > 100 µM (inactive)
- GI50 [44]: > 100 µM (inactive)
- GI50 [45]: 54.2 µM (inactive)
- GI50 [46]: > 100 µM (inactive)
- GI50 [47]: > 100 µM (inactive)
- GI50 [48]: > 100 µM (inactive)
- GI50 [49]: > 100 µM (inactive)
- GI50 [50]: 17.1 µM (inactive)
- GI50 [51]: 52.7 µM (inactive)
- GI50 [52]: > 100 µM (inactive)
- GI50 [53]: > 100 µM (inactive)
- GI50 [54]: 27.4 µM (inactive)
- GI50 [55]: > 100 µM (inactive)
- GI50 [59]: 50.7 µM (inactive)
- GI50 [56]: 85.5 µM (inactive)
